Test results taken from patent US20240317723A1, “SUBSTITUTED AMINO AZA-HETEROARYL COMPOUNDS AS INHIBITORS OF THE HAEMATOPOIETIC PROGENITOR KINASE 1 (HPK1)” (priority 2021, published 2024).

What was measured:
[1] = target: T1, Recombinant (1-346) HPK1 (h) (Homo sapiens, UniProt Q92918); assay: HPK1 Human STE Kinase Enzymatic Radiometric Assay; type: biochemical; settings: [gamma-33P]-ATP, myelin basic protein substrate, read-out: HPK1 IC50 nM Range*
T1 construct: Recombinant (1-346) HPK1 (h) is incubated with 8 mM MOPS pH 7.0
T1 sequence (Q92918 1-346): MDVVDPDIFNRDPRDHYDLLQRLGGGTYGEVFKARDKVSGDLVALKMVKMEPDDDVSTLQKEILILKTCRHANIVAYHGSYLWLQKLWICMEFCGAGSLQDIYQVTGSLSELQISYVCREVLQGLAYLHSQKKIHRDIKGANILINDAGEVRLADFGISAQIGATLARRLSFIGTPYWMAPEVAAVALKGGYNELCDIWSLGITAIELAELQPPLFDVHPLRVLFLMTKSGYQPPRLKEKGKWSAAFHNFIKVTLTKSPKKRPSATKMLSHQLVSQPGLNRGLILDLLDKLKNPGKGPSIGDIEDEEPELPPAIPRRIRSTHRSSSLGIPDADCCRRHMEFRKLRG
Procedure: (a) HPK1 Human STE Kinase Enzymatic Radiometric Assay
A stock solution of 10 mM of test compound is prepared in DMSO. The compound plate was prepared by 3-fold and 9-point serial dilutions. Recombinant (1-346) HPK1 (h) is incubated with 8 mM MOPS pH 7.0, 0.2 mM EDTA, 0.33 mg/mL myelin basic protein, 10 mM MgAcetate and [gamma-33P]-ATP (specific activity and concentration as required). The reaction is initiated by the addition of the Mg/ATP mix. After incubation for 40 minutes at RT, the reaction is stopped by the addition of phosphoric acid to a concentration of 0.5%. 10 uL of the reaction is then spotted onto a P30 filtermat and washed four times for 4 minutes in 0.425% phosphoric acid and once in methanol prior to drying and scintillation counting. For more details of kinase assay protocols, see: Gao, Y. et. al.; Biochem J. 451 (2): 313-328, 2013.

Lck (h) = Lck (h) (Homo sapiens, UniProt P06239); assay: Lck Human STE Kinase Enzymatic Radiometric Assay; type: biochemical; settings: for IC50: radiometric, [gamma-33P]-ATP, Cdc2 peptide substrate, read-out: Lck IC50, nM Range*; for Selectivity: selectivity for inhibition of HPK1 vs Lck
Sequence of Lck (h) (P06239 whole entry): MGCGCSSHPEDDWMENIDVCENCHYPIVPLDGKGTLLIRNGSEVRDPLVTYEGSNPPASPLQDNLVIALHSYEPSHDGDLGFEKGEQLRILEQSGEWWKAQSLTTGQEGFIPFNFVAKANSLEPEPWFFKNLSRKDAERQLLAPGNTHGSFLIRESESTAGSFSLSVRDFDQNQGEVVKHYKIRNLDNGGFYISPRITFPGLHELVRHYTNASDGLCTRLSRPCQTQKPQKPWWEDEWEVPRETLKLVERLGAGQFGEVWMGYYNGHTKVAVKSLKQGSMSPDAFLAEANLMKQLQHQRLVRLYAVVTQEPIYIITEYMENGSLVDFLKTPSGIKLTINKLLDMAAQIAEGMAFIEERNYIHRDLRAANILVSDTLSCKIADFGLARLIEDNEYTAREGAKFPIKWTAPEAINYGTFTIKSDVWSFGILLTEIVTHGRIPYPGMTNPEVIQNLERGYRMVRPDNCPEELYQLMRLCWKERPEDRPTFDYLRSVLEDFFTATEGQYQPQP
Procedure: (b) Lck Human STE Kinase Enzymatic Radiometric Assay
Lck (h) is incubated with 50 mM Tris pH 7.5, 0.1 mM EGTA, 0.1 mM Na3VO4, 250 uM KVEKIGEGTYGVVYK (Cdc2 peptide), 10 mM MgAcetate and [gamma-33P]-ATP (specific activity and concentration as required). The reaction is initiated by the addition of the Mg/ATP mix. After incubation for 40 minutes at room temperature, the reaction is stopped by the addition of phosphoric acid to a concentration of 0.5%. 10 uL of the reaction is then spotted onto a P30 filtermat and washed four times for 4 minutes in 0.425% phosphoric acid and once in methanol prior to drying and scintillation counting. For more details on the kinase assay procedures see: Gao, Y. et. al.; Biochem J., 451 (2): 313-328, 2013.
In some embodiments the presence of substituents on monocyclic Cy^2 rings or when Cy^2 is a bicyclic ring (unsubstituted or substituted) provides compounds with improved selectivity for inhibition of HPK1 vs Lck (see, for example, Table 3 and Table 4).

IC50 [1] [nM]	IC50 (Lck (h)) [nM]	Selectivity (Lck (h))	Structure (SMILES)
0.1 to 5	21 to 200	–	Cc1[nH]c(=O)c2cc(F)c(-c3nc(-c4ccc(C5CCOCC5)c(CN(C)C)c4)cnc3N)cc2c1F [II-6, 6-(3-amino-6-(3-((dimethylamino)methyl)-4-(tetrahydro-2H-pyran-4-yl)phenyl)pyrazin-2-yl)-4,7-difluoro-3-methylisoquinolin-1(2H)-one]
0.1 to 5	21 to 200	2740	CC(C)[C@@H]1CN(c2ccc(-c3cnc(N)c(-c4ccc5c(c4)CCNC5=O)n3)c(F)c2)CCO1 [Example I-13, (R)-6-(3-amino-6-(2-fluoro-4-(2-isopropylmorpholino)phenyl)pyrazin-2-yl)-3,4-dihydroisoquinolin-1(2H)-one]
6 to 10	21 to 200	–	C[C@@H]1CCCN1c1ccc(-c2cnc(N)c(-c3ccc4c(c3)CCNC4=O)n2)c(F)c1 [Example I-43, (R)-6-(3-amino-6-(2-fluoro-4-(2-methylpyrrolidin-1-yl)phenyl)pyrazin-2-yl)-3,4-dihydroisoquinolin-1(2H)-one]
0.1 to 5	21 to 200	1066	CC(C)[C@H]1CN(c2ccc(-c3cnc(N)c(-c4ccc5c(c4)CCNC5=O)n3)c(F)c2)CCO1 [Example I-14, (S)-6-(3-amino-6-(2-fluoro-4-(2-isopropylmorpholino)phenyl)pyrazin-2-yl)-3,4-dihydroisoquinolin-1(2H)-one]
0.1 to 5	11 to 20	–	C[C@@H]1CCCN1c1ccc(-c2cnc(N)c(-c3ccc4c(c3)CCNC4=O)n2)cc1 [Example I-42, (R)-6-(3-amino-6-(4-(2-methylpyrrolidin-1-yl)phenyl)pyrazin-2-yl)-3,4-dihydroisoquinolin-1(2H)-one]
0.1 to 5	6 to 10	–	CN1CCN(c2ccc(-c3cnc(N)c(-c4ccc5c(c4)CCNC5=O)n3)cc2)CC1 [Example I-1, 6-(3-amino-6-(4-(4-methylpiperazin-1-yl)phenyl)pyrazin-2-yl)-3,4-dihydroisoquinolin-1(2H)-one]
0.1 to 5	11 to 20	170	C[C@@H]1COCCN1c1ccc(-c2cnc(N)c(-c3ccc4c(c3)CCNC4=O)n2)cc1 [Example I-11, (R)-6-(3-amino-6-(4-(3-methylmorpholino)phenyl)pyrazin-2-yl)-3,4-dihydroisoquinolin-1(2H)-one]
0.1 to 5	6 to 10	–	Nc1ncc(-c2ccc([C@]34C[C@H]3CN(C3CC3)C4)cc2)nc1-c1cc2c(cc1F)C(=O)NCC2 [Example I-52, 6-(3-amino-6-(4-((1S,5R)-3-cyclopropyl-3-azabicyclo[3.1.0]hexan-1-yl)phenyl)pyrazin-2-yl)-7-fluoro-3,4-dihydroisoquinolin-1(2H)-one]
0.1 to 5	6 to 10	–	CN1CCN(c2ccc(-c3cnc(N)c(-c4cc(F)c5c(c4)CCNC5=O)n3)cc2)CC1 [Example I-5, 6-(3-amino-6-(4-(4-methylpiperazin-1-yl)phenyl)pyrazin-2-yl)-8-fluoro-3,4-dihydroisoquinolin-1(2H)-one]
0.1 to 5	6 to 10	–	CN1CCN(c2ccc(-c3cnc(N)c(-c4ccc5c(c4)C(C)(C)NC5=O)n3)cc2)CC1 [Example I-2, 5-(3-amino-6-(4-(4-methylpiperazin-1-yl)phenyl)pyrazin-2-yl)-3,3-dimethylisoindolin-1-one]
0.1 to 5	6 to 10	–	CC(C)N1CCN(c2ccc(-c3cnc(N)c(-c4ccc5c(c4)CCNC5=O)n3)cc2)CC1 [Example I-3, 6-(3-amino-6-(4-(4-isopropylpiperazin-1-yl)phenyl)pyrazin-2-yl)-3,4-dihydroisoquinolin-1(2H)-one]
0.1 to 5	11 to 20	–	CC(C)[C@H]1CN(c2ccc(-c3cnc(N)c(-c4cc5c(cc4F)C(=O)NCC5)n3)cc2)CCO1 [Example I-28, (S)-6-(3-amino-6-(4-(2-isopropylmorpholino)phenyl)pyrazin-2-yl)-7-fluoro-3,4-dihydroisoquinolin-1(2H)-one]

The next lines start with the compound.

Structure (SMILES)	IC50 [1] [nM]	IC50 (Lck (h)) [nM]	Selectivity (Lck (h))
CC(C)N1C[C@H]2C[C@@]2(c2ccc(-c3cnc(N)c(-c4cc5c(cc4F)C(=O)NCC5)n3)cc2)C1 [Example I-46, 6-(3-amino-6-(4-((1R,5S)-3-isopropyl-3-azabicyclo[3.1.0]hexan-1-yl)phenyl)pyrazin-2-yl)-7-fluoro-3,4-dihydroisoquinolin-1(2H)-one]	0.1 to 5	11 to 20	–
C[C@@H]1CCCCN1c1ccc(-c2cnc(N)c(-c3ccc4c(c3)CCNC4=O)n2)c(F)c1 [Example I-17, (R)-6-(3-amino-6-(2-fluoro-4-(2-methylpiperidin-1-yl)phenyl)pyrazin-2-yl)-3,4-dihydroisoquinolin-1(2H)-one]	0.1 to 5	21 to 200	–
CN1CCN(c2ccc(-c3cnc(N)c(-c4ccc5c(c4)CCNC5=O)n3)cc2)C=N1 [Example I-33, 6-(3-amino-6-(4-(1-methyl-5,6-dihydro-1,2,4-triazin-4(1H)-yl)phenyl)pyrazin-2-yl)-3,4-dihydroisoquinolin-1(2H)-one]	0.1 to 5	11 to 20	–
CN1CCN(c2ccc(-c3cnc(N)c(-c4cc5c(cc4F)C(=O)NCC5)n3)cc2)CC1 [Example I-12, 6-(3-amino-6-(4-(4-methylpiperazin-1-yl)phenyl)pyrazin-2-yl)-7-fluoro-3,4-dihydroisoquinolin-1(2H)-one]	0.1 to 5	11 to 20	–
C[C@@H]1COCCN1c1ccc(-c2cnc(N)c(-c3ccc4c(c3)CCNC4=O)n2)c(F)c1 [Example I-22, (R)-6-(3-amino-6-(2-fluoro-4-(3-methylmorpholino)phenyl)pyrazin-2-yl)-3,4-dihydroisoquinolin-1(2H)-one]	6 to 10	21 to 200	–
Nc1ncc(-c2ccc([C@@]34C[C@@H]3CN(CCF)C4)cc2)nc1-c1ccc2c(c1)CCNC2=O [Example I-37, 6-(3-amino-6-(4-((1R,5S)-3-(2-fluoroethyl)-3-azabicyclo[3.1.0]hexan-1-yl)phenyl)pyrazin-2-yl)-3,4-dihydroisoquinolin-1(2H)-one]	0.1 to 5	6 to 10	–
C[C@H]1CCCCN1c1ccc(-c2cnc(N)c(-c3ccc4c(c3)CCNC4=O)n2)c(F)c1 [Example I-18, (S)-6-(3-amino-6-(2-fluoro-4-(2-methylpiperidin-1-yl)phenyl)pyrazin-2-yl)-3,4-dihydroisoquinolin-1(2H)-one]	6 to 10	21 to 200	–
CN1C[C@@H]2C[C@]2(c2ccc(-c3cnc(N)c(-c4cc5c(cc4F)C(=O)NCC5)n3)cc2)C1 [Example I-47, 6-(3-amino-6-(4-((1S,5R)-3-methyl-3-azabicyclo[3.1.0]hexan-1-yl)phenyl)pyrazin-2-yl)-7-fluoro-3,4-dihydroisoquinolin-1(2H)-one]	0.1 to 5	11 to 20	–
C[C@H]1COCCN1c1ccc(-c2cnc(N)c(-c3ccc4c(c3)CCNC4=O)n2)c(F)c1 [Example I-23, (S)-6-(3-amino-6-(2-fluoro-4-(3-methylmorpholino)phenyl)pyrazin-2-yl)-3,4-dihydroisoquinolin-1(2H)-one]	0.1 to 5	11 to 20	–
Nc1ncc(-c2ccc(N3CCC(O)CC3)cc2)nc1-c1ccc2c(c1)CCNC2=O [Example I-6, 6-(3-amino-6-(4-(4-hydroxypiperidin-1-yl)phenyl)pyrazin-2-yl)-3,4-dihydroisoquinolin-1(2H)-one]	0.1 to 5	11 to 20	–
Nc1ncc(-c2ccc(N3CCN(CC(F)(F)F)CC3)cc2)nc1-c1ccc2c(c1)CCNC2=O [Example I-35, 6-(3-amino-6-(4-(4-(2,2,2-trifluoroethyl)piperazin-1-yl)phenyl)pyrazin-2-yl)-3,4-dihydroisoquinolin-1(2H)-one]	0.1 to 5	11 to 20	–
CN1C[C@@H]2C[C@H]1CN2c1ccc(-c2cnc(N)c(-c3ccc4c(c3)CCNC4=O)n2)cc1 [Example I-26, 6-(3-amino-6-(4-((1S,4S)-5-methyl-2,5-diazabicyclo[2.2.1]heptan-2-yl)phenyl)pyrazin-2-yl)-3,4-dihydroisoquinolin-1(2H)-one]	0.1 to 5	11 to 20	–
